# Key:
# [1] = Cytotoxicity assay (MTS, 3 days), L929; type: cell-based; conditions: L929 fibroblast cells; mouse fibroblast cell line
# Protocol: To each well of 96-well plate, 10,000 cells of LCC6, LCC6MDR or L929 were incubated with different concentrations of FM04 (0, 0.4, 1.2, 3.7, 11, 33 and 100 μM). The final volume in each well of 96-well plate was 100 μL and the plate was incubated for 3 days at 37 °C. The cell viability was determined using MTS assay as reported previously.
# [2] = target: T1, CYP3A4 (Homo sapiens, UniProt P08684); test: PTX metabolism in human liver microsomes: p3-OHP formation; type: in vitro ADME; conditions: HLM
# T1 construct: tissue Research Institute for Liver Diseases (Shanghai); host or cells: 50-donor pooled human liver microsomes
# T1 sequence (P08684 whole entry): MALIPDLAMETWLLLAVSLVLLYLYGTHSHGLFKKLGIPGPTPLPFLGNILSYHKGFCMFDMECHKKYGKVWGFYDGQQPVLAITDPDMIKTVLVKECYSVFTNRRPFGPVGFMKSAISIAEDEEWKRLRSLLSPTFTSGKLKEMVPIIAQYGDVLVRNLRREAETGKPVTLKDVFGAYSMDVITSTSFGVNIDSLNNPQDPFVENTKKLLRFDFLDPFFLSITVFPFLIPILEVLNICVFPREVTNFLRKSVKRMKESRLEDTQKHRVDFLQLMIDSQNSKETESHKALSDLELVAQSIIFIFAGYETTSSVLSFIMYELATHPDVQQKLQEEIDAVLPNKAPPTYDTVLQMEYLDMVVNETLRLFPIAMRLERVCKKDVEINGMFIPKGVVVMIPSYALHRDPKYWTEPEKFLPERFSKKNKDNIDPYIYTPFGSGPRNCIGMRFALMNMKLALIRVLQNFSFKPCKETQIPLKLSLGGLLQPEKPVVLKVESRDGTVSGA
# Protocol: N = 2–3 independent experiments. […] N = 2–3 independent experiments.
# Source parameters were as follows, gas temp (350 °C), gas flow (8 L/min), nebulizer (35 psi) and capillary (4000 V). […] Milli-Q with 0.1% formic acid was used as the aqueous phase.
# [3] = target: P-gp (Homo sapiens, UniProt P08183); test: P-gp-ATPase activity (P-gp-Glo assay); type: biochemical; set-up: purchased Promega
# P-gp, sequence (P08183 whole entry): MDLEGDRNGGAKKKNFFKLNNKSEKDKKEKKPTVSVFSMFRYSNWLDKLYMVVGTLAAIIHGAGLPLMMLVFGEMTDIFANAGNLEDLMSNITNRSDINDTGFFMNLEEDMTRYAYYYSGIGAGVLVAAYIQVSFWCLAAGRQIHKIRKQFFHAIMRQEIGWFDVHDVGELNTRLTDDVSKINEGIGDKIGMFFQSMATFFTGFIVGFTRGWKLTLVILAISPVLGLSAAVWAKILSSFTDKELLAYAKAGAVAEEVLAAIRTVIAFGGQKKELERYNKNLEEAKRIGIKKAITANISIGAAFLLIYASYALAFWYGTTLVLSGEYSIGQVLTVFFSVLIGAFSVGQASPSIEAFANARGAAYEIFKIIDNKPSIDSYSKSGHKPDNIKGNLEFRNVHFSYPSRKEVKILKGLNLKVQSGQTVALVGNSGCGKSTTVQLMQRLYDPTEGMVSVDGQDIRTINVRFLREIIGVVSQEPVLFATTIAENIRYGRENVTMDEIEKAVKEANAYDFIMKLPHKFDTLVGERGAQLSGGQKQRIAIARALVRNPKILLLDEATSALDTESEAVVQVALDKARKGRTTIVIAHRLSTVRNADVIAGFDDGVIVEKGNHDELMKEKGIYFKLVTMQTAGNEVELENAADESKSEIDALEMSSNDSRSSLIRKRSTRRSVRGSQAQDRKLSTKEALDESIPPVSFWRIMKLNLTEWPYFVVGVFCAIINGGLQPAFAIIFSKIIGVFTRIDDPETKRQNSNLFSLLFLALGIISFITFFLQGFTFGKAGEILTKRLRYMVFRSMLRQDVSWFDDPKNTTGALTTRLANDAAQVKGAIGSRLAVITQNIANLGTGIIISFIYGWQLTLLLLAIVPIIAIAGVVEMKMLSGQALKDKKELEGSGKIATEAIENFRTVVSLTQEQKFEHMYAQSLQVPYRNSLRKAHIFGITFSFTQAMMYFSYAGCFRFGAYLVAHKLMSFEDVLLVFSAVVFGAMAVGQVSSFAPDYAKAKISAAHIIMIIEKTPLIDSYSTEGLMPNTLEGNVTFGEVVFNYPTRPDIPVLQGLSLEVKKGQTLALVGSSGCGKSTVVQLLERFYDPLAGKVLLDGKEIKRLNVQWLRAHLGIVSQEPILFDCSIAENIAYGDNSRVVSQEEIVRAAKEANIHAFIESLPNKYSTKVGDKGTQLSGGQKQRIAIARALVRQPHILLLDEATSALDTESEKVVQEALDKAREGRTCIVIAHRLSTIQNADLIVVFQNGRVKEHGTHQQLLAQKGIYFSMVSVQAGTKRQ
# Protocol: N = 2–3 independent experiments. […] After incubation, the cells were lysed and spun down. […] N = 2–6 independent experiments. […] A 1% DMSO was a solvent control. […] N = 2–3 independent experiments.
# P-gp-ATPase activity was measured by a P-gp-Glo assay system (Promega) with a human P-gp membrane, as reported previously. […] The reaction was initiated by the addition of MgATP and incubated at 37 °C for 1 h. After adding the ATP detection reagent, the sample was incubated at room temperature for 20 min before measuring the remaining ATP signal of luminescence by a Clariostar microplate reader (BMG Labtech). Vanadate-inhibitable P-gp ATPase activity was determined by calculating the luminescence signal in the samples with or without sodium vanadate.
# [4] = system: human melanoma MDA435/LCC6MDR xenograft; test: In vivo efficacy in human melanoma MDA435/LCC6MDR xenograft; set-up: species or system Balb/c nude mice
# Protocol: The treatment was given every other day for 12 times (q2d × 12) from day 0 to day 22. There were four treatment groups including (1) control: no treatment, (2) PTX alone (12 mg/kg, I.V.), (3) PTX alone (24 mg/kg, I.V.) and (4) combination treatment: FM04 (28 mg/kg, I.P.,−1 h) + PTX (12 mg/kg, I.V.).
# Balb/c nude mice were subcutaneously xenografted with LCC6MDR. The treatment groups included (1) control—no treatment, (2) PTX (12 mg/kg, I.V.) alone, (3) PTX (24 mg/kg, I.V.) alone and (4) co-treatment: FM04 (28 mg/kg, I.P.) was injected 1 hr prior to PTX (12 mg/kg, I.V.). (A) tumor volume and (B) body weight were monitored throughout the treatment. The treatment was given to mice every other day for 12 times (q2d × 12) and indicated as an arrow. […] (C) Tumor-inhibition % on day 34 and tumor-doubling time after each treatment were determined. Number of animal deaths was monitored during the treatment. For the tumor volume at each time point, statistical analysis was conducted by one-way-ANOVA between co-treatment group and PTX alone treatment, * p < 0.05. /: not applicable.
# The LCC6MDR tumor xenograft model was studied previously in [24]. Female Balb/c nude mice (4–6 week-old) were subcutaneously inoculated with 5 × 10^7cells of P-gp overexpressing LCC6MDR and allowed to develop tumor. Treatment began when a solid tumor of 150–200 mm^3 was formed. Tumor-bearing mice were randomized into four groups with 7–8 mice in each group: (1) control group—no treatment, (2) PTX alone (12 mg/kg, I.V.), (3) PTX alone (24 mg/kg, I.V.) and (4) co-treatment: FM04 (28 mg/kg, I.P.) was injected 1 hr before PTX (12 mg/kg, I.V.) administration. Tumor growth was measured by an electronic caliper on the injection day and the tumor volume was calculated using the following formula: Estimated tumor volume (mm^3)=l×w^2/2
Structure (SMILES),IC50 at 3 days [1] [µM],reduction in p3-OHP ([2]; FM04 10 μM) [%],reduction in p3-OHP ([2]; FM04 20 μM) [%],"P-gp ATPase activity, fold of basal ([3]; 3 μM) [fold]","P-gp ATPase activity, fold of basal ([3]; 100 μM) [fold]","Tumor doubling time (Td) ([4]; PTX 12 mg/kg I.V., q2d × 12) [days]",fold reduction in tumor volume ([4]; PTX 24 mg/kg I.V.) [fold],weight loss ([4]; PTX 24 mg/kg I.V.) [%],"No. of animal death ([4]; PTX 24 mg/kg I.V., q2d × 12)"
"O=c1cc(-c2ccc(OCCOCCNCc3ccccc3)cc2)oc2ccccc12 [FM04, 2-(4-(2-(2-(benzylamino)ethoxy)ethoxy)phenyl)-4H-chromen-4-one]",33,42,51,1.5,3.3,,,,
"CC(=O)O[C@H]1C(=O)[C@@]2(C)[C@H]([C@H](OC(=O)c3ccccc3)[C@]3(O)C[C@H](OC(=O)[C@H](O)[C@@H](NC(=O)c4ccccc4)c4ccccc4)C(C)=C1C3(C)C)[C@]1(OC(C)=O)CO[C@@H]1C[C@@H]2O [PTX, paclitaxel]",,,,,,10,2.5,> 15,4 out of 6

# From publication PMC9739180, “Discovery of a Flavonoid FM04 as a Potent Inhibitor to Reverse P-Glycoprotein-Mediated Drug Resistance in Xenografts and Improve Oral Bioavailability of Paclitaxel” (International Journal of Molecular Sciences, 2022)
